Among the data in PMC12577588 (2025) are Kd values, retold here.

For this experiment, the system named is telo24 DNA (DNA, G4) TTAGGGTTAGGGTTAGGGTTAGGG
Put plainly: UV-vis titration. The following applies: K+ 100 mM; 10 mM HEPES pH 7.4, 1 mM Na2EDTA; 5 μM porphyrin; error is SE.

In the case of `C[n+]1ccc(-c2c3nc(c(-c4cc[n+](C)cc4)c4ccc([nH]4)c(-c4cc[n+](C)cc4)c4nc(c(-c5cc[n+](C)cc5)c5ccc2[nH]5)C=C4)C=C3)cc1`, the Kd is given as 0.93 (0.18) μM.
